Experimental data as given in publication PMC6039181, “An expanded allosteric network in PTP1B by multitemperature crystallography, fragment screening, and covalent tethering” (eLife, 2018).

Biological target: T1, PTP1B (Homo sapiens, UniProt P18031, C32S/C92V/K197C)
T1 construct: gene PTPN1; residues 1–321
T1 sequence (P18031 1-321 C32S/C92V/K197C): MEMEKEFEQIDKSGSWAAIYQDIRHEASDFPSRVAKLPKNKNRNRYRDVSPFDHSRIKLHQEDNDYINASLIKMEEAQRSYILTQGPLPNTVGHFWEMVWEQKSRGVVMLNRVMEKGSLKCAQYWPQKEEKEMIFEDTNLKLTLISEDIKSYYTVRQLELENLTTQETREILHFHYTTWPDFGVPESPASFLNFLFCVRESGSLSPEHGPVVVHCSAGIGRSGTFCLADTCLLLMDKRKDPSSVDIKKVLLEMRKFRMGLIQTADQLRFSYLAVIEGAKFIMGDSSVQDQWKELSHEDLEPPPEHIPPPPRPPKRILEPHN
Assay: crystal structure of tethered complex ([…] Å); mass-spectrometry tethering EC50 […]; pNPP inhibition Ki
Assay type: biochemical

Compound: CN(C)CCSSCC(=O)Nc1cc(-c2ccc(F)cc2F)ccc1O [compound 2, 2]
- Ki: 7.1 ± 1.1 µM
